Experimental findings from patent publication US20260226105A1, “Antimicrobial And Antibiofilm Peptides Sequences With Metal-Binding Motifs” (The Trustee of the University of Pennsylvania, priority 2021, published 2026) are described below.

In brackets after ≈: the same amount, converted by molar mass. Read-outs that look alike come from different tables or passages of the source. Ends that are not written are not given here. Some results are limits rather than exact numbers.

Data set [1] deals with E. coli (KpC1812446). Nature of the data set: microbe, parasite or virus in culture. The conditions noted are these: Escherichia coli.
The subject of data set [2] is E. coli (KpC+1812446) planktonic cells. The note with it: Table 8, planktonic cells.
For data set [3], the system named is K. pneumoniae (ATCC13883).
In data set [4] the test system is K. pneumoniae (ATCC13883). Nature of the data set: microbe, parasite or virus in culture. The conditions noted are these: Klebsiella pneumoniae.
Data set [5] relates to E. coli (KpC1812446). The conditions noted are these: agent alone, BM2 minimal medium.
Data set [6] relates to E. coli (KpC+1812446) biofilm. The note with it: Table 7, biofilm.
Data set [7] has as its system S. aureus (ATCC 25923). The conditions noted are these: for MIC in Cu(II) supplemented medium: ATCC 25923; for MIC: ATCC 25923, 12 h.
In data set [8] the test system is E. coli (ATCC 25922). The conditions noted are these: for MIC in Cu(II) supplemented medium: ATCC 25922; for MIC: ATCC 25922, 12 h.
The subject of data set [9] is K. pneumoniae (KpC+ 1825971). The conditions noted are these: for MIC in Cu(II) supplemented medium: Cu(II) supplemented medium (0.25 μM); for MIC: MH broth, 12 h, 37° C.
The subject of data set [10] is E. coli (KpC1812446). The conditions noted are these: Table 3, agent alone.
Data set [11] relates to E. coli (KpC+ 1812446). The conditions noted are these: MH broth, 12 h, 37° C.
Data set [12] deals with MRSA (3730529). The conditions noted are these: 3730529, 12 h.
Data set [13] deals with K. pneumoniae (ATCC 13883). The conditions noted are these: ATCC 13883, 12 h.
The subject of data set [14] is P. aeruginosa (ATCC 27853). The conditions noted are these: ATCC 27853, 12 h.
Data set [15] concerns K. pneumoniae (ATCC13883). The conditions noted are these: ATCC13883.
The test system of data set [16] is E. coli (KpC+ 2101123). The note with it: for MIC in Cu(II) supplemented medium: Cu(II) supplemented medium (0.25 μM); for MIC: MH broth, 12 h, 37° C.
The test system of data set [17] is E. coli KpC+1812446. The class given is in vivo, mice. The procedure:
Male Balb/C (18-20 g) mice from the Biotério Central do Campus da USP in Ribeirão Preto, São Paulo, were kept in groups of 5 per cage at 22° C. with normal cycles of light and free access to food and water. The care and use of the animals were approved by the Ethics Committee of Universidade Católica Dom Bosco number 019/2016. We assessed the ability of the peptides to protect the mice from lethal systemic infections induced with E. coli KpC+1812446. The mice (n=40) were randomly placed into eight groups of five mice each, and each mouse was injected intraperitoneally with 200 μL of saline solution containing 2×10^7 CFU of E. coli KpC+1812446. Intraperitoneal treatment with 5 or 10 mg·Kg^−1 of each peptide was initiated after one hour of infection and repeated at 24 h intervals for seven days^61. Gentamicin at 10 mg·Kg^−1 of body weight and normal saline were used as positive and negative controls, respectively.

[18] abbreviates: antibiotic in combination with CM15.
The mark [19] stands for this setting: antibiotic in combination with GGH-CM15.
The mark [20] stands for this setting: antibiotic in combination with VIH-CM15.
The mark [21] stands for this setting: agent alone, BM2 minimal medium.
Setting [22] is: Cu(II) in MH broth, determined in our laboratory.

On to `CC1(C)S[C@@H]2[C@H](NC(=O)[C@H](N)c3ccccc3)C(=O)N2[C@H]1C(=O)O` [AmP, ampicillin], for which the MIC in [1] and in data set [4] was above 183 µM throughout. For the same molecule, the “MBIC Antibiotic alone” value in data set [2] and in data set [6] was 366 µM each time. Moreover, the “MBIC Antibiotic + Peptide” value in [2] (setting [18]), in [2] (setting [19]), in data set [2] (setting [20]), in data set [6] (setting [18]), in [6] (setting [19]) and in [6] (setting [20]) was 366 µM in each case. The MBIC in data set [3] (setting [21]) and in [5] was above 183 µM throughout.

Consider `O=C(N[C@H](CO)[C@H](O)c1ccc([N+](=O)[O-])cc1)C(Cl)Cl` [CHL, chloramphenicol], for which the MIC in data set [1] and in [4] was above 198 µM each time. Also, the “MBIC Antibiotic alone” value in data set [2] and in data set [6] was 396 µM throughout. The “MBIC Antibiotic + Peptide” value in data set [2] (setting [18]) amounted to 0.8 µM; in [2] (setting [19]), 3 µM; in data set [2] (setting [20]), 0.8 µM; in data set [6] (setting [18]), 396 µM; in data set [6] (setting [19]) it was 396 µM; in data set [6] (setting [20]) it was 396 µM. Besides, the MBIC in data set [3] (setting [21]) and in data set [5] was above 198 µM throughout.

`O.O.O.O.O.O=S(=O)([O-])[O-].[Cu+2]` [Cu(II) ions, CuSO4·5H2O]: the toxic level in data set [7] (setting [22]) and in data set [8] (setting [22]) was 7.8 mM each time.

For `C[C@@H](O)[C@H]1C(=O)N2C(C(=O)O)=C(S[C@@H]3CN[C@H](C(=O)N(C)C)C3)[C@H](C)[C@H]12` [MER, meropenem], the results for the MIC in [1] and in data set [4] were 0.6 µM (≈ 0.23 µg/mL) and above 167 µM, respectively. The “MBIC Antibiotic alone” value in data set [2] and in [6] was 0.6 µM throughout. Also, the “MBIC Antibiotic + Peptide” value came to 0.6 µM in data set [2] (setting [18]); 0.16 µM in [2] (setting [19]); 0.3 µM in data set [2] (setting [20]); 0.16 µM in data set [6] (setting [18]); 0.013 µM in data set [6] (setting [19]); 0.04 µM in data set [6] (setting [20]). The values for the MBIC in data set [3] (setting [21]) and in data set [5] were above 167 µM and 0.6 µM, respectively.

In the case of `[H]/N=C(/N)N[C@H]1[C@H](O)[C@@H](O)[C@H](O[C@@H]2O[C@@H](C)[C@](O)(C=O)[C@H]2O[C@@H]2O[C@@H](CO)[C@H](O)[C@@H](O)[C@@H]2NC)[C@@H](N/C(N)=N\[H])[C@@H]1O` [STR, streptomycin], the MIC is 14 µM (≈ 8.14 µg/mL) in data set [1] and above 110 µM in data set [4]. Further, the “MBIC Antibiotic alone” value in data set [2] and in data set [6] was 14 µM in each case. Besides, the “MBIC Antibiotic + Peptide” value was found to be 4 µM in data set [2] (setting [18]); 14 µM in [2] (setting [19]); 0.4 µM in data set [2] (setting [20]); 4 µM in [6] (setting [18]); 4 µM in [6] (setting [19]); 7 µM in data set [6] (setting [20]). The MBIC in [3] (setting [21]) was above 110 µM; in data set [5], 14 µM.

As to `COc1cc(Cc2cnc(N)nc2N)cc(OC)c1OC` [TRI, trimethoprim], the MIC in [1] and in [4] was above 220 µM each time. For the same molecule, the “MBIC Antibiotic alone” value in [2] and in data set [6] was 440 µM each time. Further, the “MBIC Antibiotic + Peptide” value in data set [2] (setting [18]) was determined as 55 µM; in data set [2] (setting [19]), 110 µM; in data set [2] (setting [20]), 220 µM; in data set [6] (setting [18]) it was 440 µM; in data set [6] (setting [19]), 220 µM; in data set [6] (setting [20]), 220 µM. The MBIC in data set [3] (setting [21]) and in data set [5] was above 220 µM in each case.

Turning to “GGHGLFDVIKKVASVIGGL-NH2 [GGH-Citropin1.1]”, the “MIC in Cu(II) supplemented medium” value in [9] was above 34 µM; in data set [7] it was 9 µM; in data set [8] it was 34 µM; in data set [16], 9 µM. Further, the MIC in data set [9] was above 34 µM; in data set [7] it was 9 µM; in data set [10], above 34 µM; in [11], 34 µM; in data set [8], 34 µM; in [12], 17 µM. Further, the MIC was 34 µM in data set [13], above 34 µM in data set [14], above 34 µM in data set [15] and 9 µM in data set [16]. The MBIC in data set [3] (ATCC13883) and in data set [5] was above 34 µM each time.

Turning to “GLFDVIKKVASVIGGL-NH2 [Citropin1.1, GLFDVIKKVASVIGGL-NH2, reference compound]”, the “MIC in Cu(II) supplemented medium” value in [9] came out at 20 µM; in [7] it was 3 µM; in data set [8] it was 10 µM; in data set [16], 5 µM. Besides, the MIC in data set [9] was 20 µM; in data set [7] it was 3 µM; in data set [10] it was above 40 µM; in [11], 10 µM; in data set [8], 10 µM; in data set [12], 10 µM. Also, the MIC in data set [13] was 20 µM; in data set [14] it was above 40 µM; in [15] it was above 40 µM; in [16], 5 µM. Besides, the MBIC in data set [3] (ATCC13883) and in data set [5] was above 40 µM in each case.

In the case of “KWKLFKKIGAVLKVL [CM15, KWKLFKKIGAVLKVL, reference compound]”, in data set [17] (10 mg·Kg^−1 intraperitoneal), the mouse deaths entry was “led to mouse deaths after two days of treatment”. In addition, the in vivo toxicity entry in data set [17] (infected Balb/C mice, 5 and 10 mg·Kg^−1) was “high in vivo toxicity”.

On to “VIHGLFDVIKKVASVIGGL-NH2 [VIH-Citropin1.1]”, for which the “MIC in Cu(II) supplemented medium” value in [9] is above 33 µM; in data set [7], 4 µM; in data set [8] it was above 33 µM; in data set [16], 16 µM. The MIC in [9] is above 33 µM; in data set [7] it was 4 µM; in data set [10], above 33 µM; in data set [11], 33 µM; in data set [8], above 33 µM; in data set [12], 16 µM. In addition, the MIC was above 33 µM in [13], above 33 µM in [14], above 33 µM in data set [15] and 16 µM in data set [16]. Besides, the MBIC in data set [3] (ATCC13883) and in [5] was above 33 µM throughout.
